Data reported in ChEMBL document CHEMBL1201862, “PubChem BioAssay data set” (2004).
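In this assay, cells in 96-well plates receive the compound at five concentrations for 48 hours. Endpoints are linearly interpolated between the surrounding concentrations. GI50 is the concentration that inhibits growth by half.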 Active and inactive are the calls of the source. Rule as the data show it: active = GI50 up to about 1.1 µM and inactive = higher.

Columns and labels:
Test in all cases: DTP human tumour cell line panel, 48 h
[1] = test system: A498
[2] = test system: ACHN
[3] = test system: CCRF-CEM
[4] = test system: EKVX
[5] = test system: HCT-15
[6] = test system: HOP-92
[7] = test system: HT-29
[8] = test system: M19-MEL
[9] = test system: MCF7
[10] = test system: MOLT-4
[11] = test system: Malme-3M
[12] = test system: NCI-H522
[13] = test system: OVCAR-4
[14] = test system: OVCAR-5
[15] = test system: OVCAR-8
[16] = test system: PC-3
[17] = test system: RPMI-8226
[18] = test system: SK-MEL-2
[19] = test system: SNB-75
[20] = test system: TK-10

With `CC(C)NC(=O)OCc1c(COC(=O)NC(C)C)c(-c2ccc(Cl)c(Cl)c2)n2c1CCC2` the GI50 [1] was 34 µM (inactive), the GI50 [2] was 18.7 µM (inactive) and the GI50 [3] was 26.5 µM (inactive). The GI50 [4] was 57.1 µM (inactive), the GI50 [5] was 52.7 µM and the GI50 [6] was 29.4 µM (inactive). For the same compound, the GI50 [7] was 40.9 µM (inactive), the GI50 [8] was 33.7 µM (inactive) and the GI50 [9] was > 100 µM (inactive). The GI50 [10] was 13.7 µM (inactive), the GI50 [11] was 47.1 µM (inactive) and the GI50 [12] was > 62.4 µM (inactive). The GI50 [13] was > 66.5 µM (inactive), the GI50 [14] was 44.9 µM (inactive) and the GI50 [15] was 46.6 µM (inactive). The GI50 [16] was > 80.7 µM (inactive), the GI50 [17] was 17.9 µM (inactive) and the GI50 [18] was 44.2 µM (inactive). The GI50 [19] was 39.4 µM (inactive) and the GI50 [20] was 41.7 µM (inactive).
With `COc1cccc(/C=C2\CCC(CN(C)C)C2=O)c1` (stereo not given) the GI50 [1] was 16.3 µM (inactive), the GI50 [2] was 11.8 µM (inactive) and the GI50 [3] was 1.08 µM (active). For the same compound, the GI50 [4] was 19.3 µM (inactive), the GI50 [5] was 2.58 µM and the GI50 [6] was 13.7 µM (inactive). For the same compound, the GI50 [7] was 6.05 µM (inactive), the GI50 [8] was 4.84 µM (inactive) and the GI50 [9] was 2.25 µM (inactive). The GI50 [10] was 1.44 µM (inactive), the GI50 [11] was 5.81 µM (inactive) and the GI50 [12] was 2.56 µM (inactive). For the same compound, the GI50 [13] was 9.82 µM (inactive), the GI50 [14] was 12.1 µM (inactive) and the GI50 [15] was 3.08 µM (inactive). For the same compound, the GI50 [16] was 12.4 µM (inactive), the GI50 [17] was 0.995 µM (active) and the GI50 [18] was 11.8 µM (inactive). For the same compound, the GI50 [19] was 17 µM (inactive) and the GI50 [20] was 10.2 µM (inactive).
